Reference: ChEMBL document CHEMBL1201862, “PubChem BioAssay data set” (2004)
Active and inactive are the calls of the source.

Tests used:
[1] = KCNQ1 channel current modulation by KCNQ2 openers, dose response, selectivity assay for KCNQ2 activator project, automated patch clamp, KCNQ1-CHO cells (AID 493044); format: functional, cell-based
[2] = KCNQ1/KCNE1 channel current potentiation, dose response, selectivity assay for KCNQ2 activator project, automated patch clamp, CHO cells (AID 493042); format: functional
[3] = target: Potassium voltage-gated channel subfamily KQT member 2 (Rattus norvegicus, UniProt O88943); test: Mode of action assay-Dose response assay for compounds that activate KCNQ2 potassium channels on automated patch clamp. [Related pubchem assays (depositor defined):AID2239, AID2258, AID2287, AID493113]; format: functional
[4] = target: T1, Potassium voltage-gated channel subfamily KQT member 4 (Homo sapiens, UniProt P56696); test: KCNQ4 channel modulation, potentiation or inhibition, dose response, selectivity assay for KCNQ2 activator project, thallium flux, KCNQ4-expressing cells (AID 504416); format: functional, cell-based
[5] = target: T1, Potassium voltage-gated channel subfamily KQT member 4; test: human KCNQ4 channel current potentiation, dose response, selectivity assay for KCNQ2 activator project, automated patch clamp, CHO cells (AID 493043); format: functional, cell-based
[6] = target: Potassium voltage-gated channel subfamily KQT member 2/member 3 (Rattus norvegicus, UniProt O88943+O88944); test: Mode of action assay-Dose response assay for KCNQ2 activators in the KCNQ2/KCNQ3 co-expressing cells on automated patch clamp. [Related pubchem assays (depositor defined):AID2239, AID2258, AID2287]; format: functional
Jurkat = test: SAR Analysis of small molecule inhibitors of T-cell specific antigen receptor-induced NF-kB activation in a Jurkat cell line using a luminescence assay. [Related pubchem assays (depositor defined):AID435003, AID435012, AID465]; format: functional, cell-based; conditions: Homo sapiens
HEK293 [7] = test: cytotoxicity in HEK293T NF-kB-Luc cells, SAR follow-up, cytotoxicity control for NF-kB activator project, cell-based, resazurin fluorescence (AID 493251); format: functional; conditions: Homo sapiens
HEK293 [8] = test: SAR Analysis of small molecule inhibitors of T-cell specific antigen receptor-induced NF-kB activation in a HEK-293T cell line using a luminescence assay. [Related pubchem assays (depositor defined):AID435003, AID435012, AID489026]; format: functional, cell-based; conditions: Homo sapiens
[9] = target: T2, Platelet-activating factor acetylhydrolase 2, cytoplasmic (Mus musculus, UniProt Q8VDG7); test: Late stage assay provider results from the probe development effort to identify inhibitors of PAFAH2: fluorescence-based cell-based gel-based Activity-Based Protein Profiling (ABPP) IC50. [Related pubchem assays (depositor defined):AID492956, AID492969, AID493030]; format: functional
[10] = target: T2, Platelet-activating factor acetylhydrolase 2, cytoplasmic; test: Late stage assay provider results from the probe development effort to identify inhibitors of PAFAH2: Fluorescence-based biochemical gel-based Activity-Based Protein Profiling (ABPP) IC50. [Related pubchem assays (depositor defined):AID492956, AID492969, AID493030]
Phospholipase D2 = Phospholipase D2 (Homo sapiens, UniProt O14939); test: PLD2 inhibitor potency in cells, dose response (AID 602147); format: functional;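 also: cellular assay in HEK293 cells overexpressing GFP-tagged PLD2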
Phospholipase D1 = Phospholipase D1 (Homo sapiens, UniProt Q13393); test: PLD1 inhibitor potency in cells, dose response (AID 602151); format: functional;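 also: cellular PLD1 assay in Calu-1 cells stimulated with PMA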
Cysteine protease ATG4B = Cysteine protease ATG4B (Homo sapiens, UniProt Q9Y4P1); format: functional;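 also: Fluorescence-based dose-response confirmation assay measuring inhibition of ATG4B activity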
Phospholipase A2 = Phospholipase A2 (Homo sapiens, UniProt P04054); format: functional;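 also: confirmatory dose-response counterscreen on phospholipase A2, testing hits that came from an ultra-high-throughput screen for ATG4B inhibitors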
[11] = target: T3, Small ubiquitin-related modifier 1 (Homo sapiens, UniProt P63165); test: inhibitors of SUMO1 partner interactions, dose response, biochemical, FRET (AID 624383); format: functional; conditions: read-out: IC50_Mean
[12] = target: T4, Rac GTPase-activating protein 1 (Homo sapiens, UniProt Q9H0H5); test: MgcRacGAP GTPase-activating activity inhibitors, confirmation, biochemical, ADP Hunter fluorescence, primary and confirmatory (AID 624330); format: functional
T4 sequence (Q9H0H5 whole entry): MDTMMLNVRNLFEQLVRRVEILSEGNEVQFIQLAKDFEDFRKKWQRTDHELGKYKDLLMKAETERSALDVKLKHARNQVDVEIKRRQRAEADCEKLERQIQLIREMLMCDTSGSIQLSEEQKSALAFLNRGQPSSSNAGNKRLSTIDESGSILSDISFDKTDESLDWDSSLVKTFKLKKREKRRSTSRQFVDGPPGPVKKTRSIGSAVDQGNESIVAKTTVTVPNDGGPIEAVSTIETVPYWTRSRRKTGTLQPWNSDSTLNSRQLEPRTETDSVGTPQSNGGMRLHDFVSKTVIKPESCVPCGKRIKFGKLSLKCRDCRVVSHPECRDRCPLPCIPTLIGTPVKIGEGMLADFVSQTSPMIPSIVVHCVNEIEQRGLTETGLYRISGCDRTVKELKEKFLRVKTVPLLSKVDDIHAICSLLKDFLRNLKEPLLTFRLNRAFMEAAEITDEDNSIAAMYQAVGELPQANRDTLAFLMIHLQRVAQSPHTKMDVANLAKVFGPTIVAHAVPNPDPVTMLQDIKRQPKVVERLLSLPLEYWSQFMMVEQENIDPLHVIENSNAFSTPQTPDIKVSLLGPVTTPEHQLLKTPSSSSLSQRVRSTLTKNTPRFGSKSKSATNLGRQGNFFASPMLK

[13] = target: Beta-adrenergic receptor kinase 1 (Homo sapiens, UniProt P25098); test: aptamer displacement from bead-bound GRK2 – biochemical, cherry pick 1, bead flow cytometry, dose response (AID 504500)
[14] = target: T5, Short transient receptor potential channel 4 (Mus musculus, UniProt Q9QUQ5); test: mouse TRPC4 channel activators, dose response, cell-based, HEK293 TRPC4/mu-opioid, Fluo-4 calcium (AID 434937); format: functional
T5 sequence (Q9QUQ5 whole entry): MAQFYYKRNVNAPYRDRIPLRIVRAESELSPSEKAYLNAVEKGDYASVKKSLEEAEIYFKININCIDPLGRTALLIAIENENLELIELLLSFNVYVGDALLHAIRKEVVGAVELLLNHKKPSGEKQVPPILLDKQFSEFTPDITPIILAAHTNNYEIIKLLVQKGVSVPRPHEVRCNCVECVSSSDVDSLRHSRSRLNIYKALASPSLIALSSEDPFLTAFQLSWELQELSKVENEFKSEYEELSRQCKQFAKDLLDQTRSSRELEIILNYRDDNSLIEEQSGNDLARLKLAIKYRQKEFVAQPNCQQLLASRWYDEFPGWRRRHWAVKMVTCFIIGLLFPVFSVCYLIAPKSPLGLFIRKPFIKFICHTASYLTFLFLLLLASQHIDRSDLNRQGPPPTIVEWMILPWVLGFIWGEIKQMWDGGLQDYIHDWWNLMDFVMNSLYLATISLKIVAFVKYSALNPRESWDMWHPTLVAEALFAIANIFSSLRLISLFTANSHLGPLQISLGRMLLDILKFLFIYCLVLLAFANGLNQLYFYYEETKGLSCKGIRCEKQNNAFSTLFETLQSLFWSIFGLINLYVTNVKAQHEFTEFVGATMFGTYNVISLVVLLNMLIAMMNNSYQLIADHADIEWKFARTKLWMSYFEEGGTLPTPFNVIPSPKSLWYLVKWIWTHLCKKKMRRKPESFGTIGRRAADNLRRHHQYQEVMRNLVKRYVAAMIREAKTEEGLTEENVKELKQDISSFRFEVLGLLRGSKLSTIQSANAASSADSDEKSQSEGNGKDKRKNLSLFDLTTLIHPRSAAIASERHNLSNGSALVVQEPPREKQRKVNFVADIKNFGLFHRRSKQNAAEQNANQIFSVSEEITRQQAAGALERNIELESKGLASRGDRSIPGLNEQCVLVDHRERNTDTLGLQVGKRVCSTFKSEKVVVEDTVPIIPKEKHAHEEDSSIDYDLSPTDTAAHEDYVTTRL

[15] = target: T6, Dual specificity protein phosphatase 3 (Homo sapiens, UniProt P51452); test: VHR1 phosphatase inhibitors, biochemical (AID 1878)
[16] = target: T6, Dual specificity protein phosphatase 3; test: VHR1 phosphatase inhibitors, primary screen, biochemical, absorbance, uHTS (AID 1654)
[17] = target: T3, Small ubiquitin-related modifier 1; test: inhibitors of SUMO1 peptide binding, dose response, biochemical, fluorescence polarization, uHTS hits (AID 624382); format: functional; conditions: read-out: IC50_Mean
[18] = target: Dual specificity tyrosine-phosphorylation-regulated kinase 1A (Rattus norvegicus, UniProt Q63470); format: biochemical, Homo sapiens
[19] = target: Multidrug resistance protein CDR2 (Candida albicans (strain SC5314 / ATCC MYA-2876) (Yeast), UniProt P78595); test: CaCDR2 efflux pump inhibitors in yeast, dose response, S. cerevisiae AD1-8u, singleplex, Cherry Pick1 hits (AID 588604); format: functional
[20] = target: T7, Dual specificity protein phosphatase 6 (Rattus norvegicus, UniProt Q64346); test: MKP-3 phosphatase inhibitors, primary screen, biochemical, rat enzyme, in vitro (AID 425)
T7 sequence (Q64346 whole entry): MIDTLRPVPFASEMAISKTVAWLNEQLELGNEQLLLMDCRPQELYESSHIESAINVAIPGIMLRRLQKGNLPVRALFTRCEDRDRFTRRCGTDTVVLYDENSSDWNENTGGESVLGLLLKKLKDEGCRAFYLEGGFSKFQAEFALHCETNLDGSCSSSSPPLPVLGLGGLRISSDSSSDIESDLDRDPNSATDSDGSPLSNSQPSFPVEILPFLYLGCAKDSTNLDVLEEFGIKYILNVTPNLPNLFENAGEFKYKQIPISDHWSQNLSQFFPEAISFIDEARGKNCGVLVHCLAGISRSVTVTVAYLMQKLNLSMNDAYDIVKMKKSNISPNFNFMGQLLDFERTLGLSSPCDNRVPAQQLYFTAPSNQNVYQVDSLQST

[21] = target: Multidrug resistance protein CDR1 (Candida albicans, UniProt P43071); test: CaCDR1 efflux pump inhibitors in yeast, dose response, S. cerevisiae AD1-8u, singleplex, Cherry Pick1 hits (AID 588606); format: functional
Insulin-degrading enzyme [22] = target: T8, Insulin-degrading enzyme (Homo sapiens, UniProt P14735); test: activators of endogenous IDE in HEK cells, dose response, cell-based, fluorescence polarization (AID 588439); format: functional
[23] = target: T9, Carboxy-terminal domain RNA polymerase II polypeptide A small phosphatase 1 (Homo sapiens, UniProt Q9GZU7); test: inhibitors of CTDSP1, concentration-response testing, biochemical assay, absorbance-based, actives from ultra-high-throughput screening (AID 540297); format: functional
T9 sequence (Q9GZU7 whole entry): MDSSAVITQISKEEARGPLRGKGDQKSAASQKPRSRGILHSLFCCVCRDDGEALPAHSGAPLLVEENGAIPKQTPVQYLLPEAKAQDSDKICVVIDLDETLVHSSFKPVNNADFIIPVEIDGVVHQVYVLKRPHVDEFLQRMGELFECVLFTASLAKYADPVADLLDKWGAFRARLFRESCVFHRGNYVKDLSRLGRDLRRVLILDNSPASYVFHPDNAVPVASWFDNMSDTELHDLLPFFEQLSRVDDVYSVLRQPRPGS

HEK293 [24] = test: optical interference in Abeta FP readout, dose response, artefact control for IDE activator project, biochemical, fluorescence polarization (AID 588442); format: functional, cell-based; conditions: Homo sapiens
Insulin-degrading enzyme [25] = target: T8, Insulin-degrading enzyme; test: activators of recombinant IDE enzyme, dose response, counter-screen for IDE activator project, biochemical, fluorescence polarization (AID 588681)
HEK293 [26] = test: HEK cell cytotoxicity by LDH release, dose response, cytotoxicity control for IDE activator project, fluorescence, HEK cells (AID 588440); format: functional, cell-based; conditions: Homo sapiens;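 also: cytotoxicity by LDH release measuring loss of membrane integrity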

T1 sequence (P56696 whole entry): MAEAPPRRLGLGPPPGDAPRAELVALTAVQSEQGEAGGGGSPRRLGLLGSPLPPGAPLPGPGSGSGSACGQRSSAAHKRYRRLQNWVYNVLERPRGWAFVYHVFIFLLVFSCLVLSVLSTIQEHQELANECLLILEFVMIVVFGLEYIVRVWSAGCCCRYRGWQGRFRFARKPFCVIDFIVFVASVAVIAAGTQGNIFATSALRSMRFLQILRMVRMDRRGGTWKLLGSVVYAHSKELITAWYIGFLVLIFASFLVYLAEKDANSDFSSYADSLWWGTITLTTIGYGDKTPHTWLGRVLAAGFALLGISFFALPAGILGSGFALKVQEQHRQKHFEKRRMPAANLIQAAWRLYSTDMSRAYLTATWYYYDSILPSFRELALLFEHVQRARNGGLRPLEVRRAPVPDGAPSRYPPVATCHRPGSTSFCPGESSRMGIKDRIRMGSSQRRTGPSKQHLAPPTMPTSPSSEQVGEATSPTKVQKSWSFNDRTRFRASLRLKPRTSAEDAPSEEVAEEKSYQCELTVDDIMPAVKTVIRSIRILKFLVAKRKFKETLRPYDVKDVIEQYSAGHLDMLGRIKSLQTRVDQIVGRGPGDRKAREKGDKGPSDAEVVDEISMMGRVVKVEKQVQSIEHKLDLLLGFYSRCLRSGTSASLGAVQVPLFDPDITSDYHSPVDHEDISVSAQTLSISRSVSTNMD
T8 sequence (P14735 whole entry, the tested form may be a part): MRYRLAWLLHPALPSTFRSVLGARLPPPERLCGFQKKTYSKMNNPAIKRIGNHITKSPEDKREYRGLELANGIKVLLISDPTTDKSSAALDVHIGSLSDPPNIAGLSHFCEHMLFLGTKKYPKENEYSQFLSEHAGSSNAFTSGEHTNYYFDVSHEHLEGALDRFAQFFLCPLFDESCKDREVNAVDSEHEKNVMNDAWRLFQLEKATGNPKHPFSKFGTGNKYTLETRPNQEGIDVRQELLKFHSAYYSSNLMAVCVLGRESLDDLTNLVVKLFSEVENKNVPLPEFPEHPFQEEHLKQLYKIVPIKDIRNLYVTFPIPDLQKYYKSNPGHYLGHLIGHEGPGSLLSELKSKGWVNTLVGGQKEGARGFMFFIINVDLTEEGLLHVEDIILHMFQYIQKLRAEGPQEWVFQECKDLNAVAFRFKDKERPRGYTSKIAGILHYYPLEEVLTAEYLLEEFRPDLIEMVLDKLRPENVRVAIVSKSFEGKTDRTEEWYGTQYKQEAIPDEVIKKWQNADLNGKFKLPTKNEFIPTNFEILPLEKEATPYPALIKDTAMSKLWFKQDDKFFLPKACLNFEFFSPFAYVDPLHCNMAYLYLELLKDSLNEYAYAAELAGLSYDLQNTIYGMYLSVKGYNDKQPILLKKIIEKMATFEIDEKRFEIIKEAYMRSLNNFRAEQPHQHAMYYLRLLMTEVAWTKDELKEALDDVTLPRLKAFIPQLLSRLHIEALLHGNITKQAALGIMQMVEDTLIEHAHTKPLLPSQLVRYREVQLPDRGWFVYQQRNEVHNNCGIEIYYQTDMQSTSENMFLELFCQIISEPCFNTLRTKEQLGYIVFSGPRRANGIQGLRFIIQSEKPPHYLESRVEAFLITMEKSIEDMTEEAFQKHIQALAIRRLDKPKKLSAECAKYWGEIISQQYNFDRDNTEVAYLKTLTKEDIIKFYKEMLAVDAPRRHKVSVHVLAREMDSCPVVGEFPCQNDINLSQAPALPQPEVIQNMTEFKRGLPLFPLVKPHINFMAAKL
T6 sequence (P51452 whole entry): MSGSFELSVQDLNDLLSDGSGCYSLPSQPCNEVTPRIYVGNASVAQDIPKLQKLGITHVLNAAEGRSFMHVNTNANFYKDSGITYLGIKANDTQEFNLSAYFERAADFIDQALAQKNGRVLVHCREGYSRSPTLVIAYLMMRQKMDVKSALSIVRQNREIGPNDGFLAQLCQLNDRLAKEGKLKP
T2 sequence (Q8VDG7 whole entry): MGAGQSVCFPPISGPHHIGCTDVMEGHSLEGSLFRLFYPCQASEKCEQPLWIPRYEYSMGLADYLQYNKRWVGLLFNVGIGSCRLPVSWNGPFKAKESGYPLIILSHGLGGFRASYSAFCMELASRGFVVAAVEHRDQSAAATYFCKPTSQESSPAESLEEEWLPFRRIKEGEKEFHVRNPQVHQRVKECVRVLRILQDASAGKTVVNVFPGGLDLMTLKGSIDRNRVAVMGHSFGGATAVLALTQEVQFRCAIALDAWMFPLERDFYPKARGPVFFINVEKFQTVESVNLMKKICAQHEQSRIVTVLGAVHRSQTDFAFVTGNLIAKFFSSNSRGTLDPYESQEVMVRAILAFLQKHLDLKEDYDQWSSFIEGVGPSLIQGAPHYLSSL
T3 sequence (P63165 whole entry): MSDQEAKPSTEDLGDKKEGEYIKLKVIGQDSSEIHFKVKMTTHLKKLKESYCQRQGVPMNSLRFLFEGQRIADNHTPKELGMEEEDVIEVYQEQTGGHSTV
Cysteine protease ATG4B, sequence (Q9Y4P1 whole entry): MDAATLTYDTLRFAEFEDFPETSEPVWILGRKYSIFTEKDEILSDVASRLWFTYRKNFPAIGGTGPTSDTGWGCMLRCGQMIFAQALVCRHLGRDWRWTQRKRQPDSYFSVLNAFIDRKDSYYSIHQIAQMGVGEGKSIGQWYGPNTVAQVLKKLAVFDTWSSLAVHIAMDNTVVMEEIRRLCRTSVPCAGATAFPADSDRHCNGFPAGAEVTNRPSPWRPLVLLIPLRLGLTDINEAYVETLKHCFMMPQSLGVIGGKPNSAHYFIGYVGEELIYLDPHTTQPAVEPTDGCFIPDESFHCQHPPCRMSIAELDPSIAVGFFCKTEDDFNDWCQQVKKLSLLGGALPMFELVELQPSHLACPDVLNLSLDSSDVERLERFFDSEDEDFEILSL
Multidrug resistance protein CDR2, sequence (P78595 whole entry): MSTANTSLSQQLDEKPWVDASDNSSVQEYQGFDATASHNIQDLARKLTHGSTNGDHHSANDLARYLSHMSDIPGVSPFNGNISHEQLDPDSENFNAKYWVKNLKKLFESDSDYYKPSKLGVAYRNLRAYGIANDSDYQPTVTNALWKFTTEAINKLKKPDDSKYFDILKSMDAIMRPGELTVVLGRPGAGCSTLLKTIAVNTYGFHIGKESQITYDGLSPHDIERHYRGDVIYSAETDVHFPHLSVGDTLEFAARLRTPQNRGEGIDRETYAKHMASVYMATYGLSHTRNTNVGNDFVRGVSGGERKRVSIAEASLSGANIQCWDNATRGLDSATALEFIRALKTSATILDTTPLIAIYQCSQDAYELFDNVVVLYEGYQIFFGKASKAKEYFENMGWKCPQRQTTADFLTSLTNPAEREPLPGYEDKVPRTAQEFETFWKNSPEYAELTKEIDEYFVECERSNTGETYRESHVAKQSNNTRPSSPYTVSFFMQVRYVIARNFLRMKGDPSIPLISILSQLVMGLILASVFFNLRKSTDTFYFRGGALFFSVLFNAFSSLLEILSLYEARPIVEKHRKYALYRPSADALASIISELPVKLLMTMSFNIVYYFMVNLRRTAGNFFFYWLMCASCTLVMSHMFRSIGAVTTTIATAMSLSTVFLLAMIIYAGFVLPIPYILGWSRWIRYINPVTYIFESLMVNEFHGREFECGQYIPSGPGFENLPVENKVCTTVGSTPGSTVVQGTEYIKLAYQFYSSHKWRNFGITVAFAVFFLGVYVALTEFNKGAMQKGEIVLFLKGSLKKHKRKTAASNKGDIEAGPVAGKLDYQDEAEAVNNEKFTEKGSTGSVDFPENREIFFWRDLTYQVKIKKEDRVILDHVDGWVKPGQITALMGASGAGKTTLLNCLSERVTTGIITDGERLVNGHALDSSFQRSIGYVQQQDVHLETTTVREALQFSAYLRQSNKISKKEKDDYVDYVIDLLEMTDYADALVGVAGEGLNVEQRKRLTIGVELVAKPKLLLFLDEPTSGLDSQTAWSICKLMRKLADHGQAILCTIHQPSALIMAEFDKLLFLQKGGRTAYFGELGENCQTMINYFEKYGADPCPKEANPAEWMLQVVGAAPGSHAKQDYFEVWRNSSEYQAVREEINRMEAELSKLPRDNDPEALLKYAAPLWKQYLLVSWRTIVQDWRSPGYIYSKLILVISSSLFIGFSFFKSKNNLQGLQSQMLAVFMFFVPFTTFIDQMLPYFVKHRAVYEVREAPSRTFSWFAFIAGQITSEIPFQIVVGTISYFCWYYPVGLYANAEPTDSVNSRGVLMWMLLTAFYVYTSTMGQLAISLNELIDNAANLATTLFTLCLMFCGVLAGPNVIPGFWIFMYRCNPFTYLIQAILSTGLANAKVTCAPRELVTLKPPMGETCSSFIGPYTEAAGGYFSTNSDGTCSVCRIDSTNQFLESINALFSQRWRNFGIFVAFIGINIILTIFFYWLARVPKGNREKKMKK
Phospholipase A2, sequence (P04054 whole entry): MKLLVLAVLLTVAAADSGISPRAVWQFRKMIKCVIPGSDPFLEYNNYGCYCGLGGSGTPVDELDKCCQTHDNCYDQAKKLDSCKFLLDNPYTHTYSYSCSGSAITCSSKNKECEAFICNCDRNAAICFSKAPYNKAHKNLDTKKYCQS

Cc1ccc(C)c(NC(=O)C2CC3CCC2C3)c1 (stereo unspecified)
EC50 [1]: 5.03 µM (active)
EC50 [2]: 2.68 µM (active)
EC50 [3]: 0.402 µM (active)
EC50 [4]: 2.64 µM (active)
EC50 [5]: 1.63 µM (active)
EC50 [6]: 0.396 µM (active)

COc1ccc(C(NC(=O)c2ccccc2)c2ccc3cccnc3c2O)cc1 (stereo unspecified)
IC50 (Jurkat): 2.67 µM (active)
IC50 (HEK293 [7]): 6.26 µM (active)
IC50 (HEK293 [8]): 23.2 µM (inactive)

O=C(N1CCCC1)n1ncc(-c2ccc(-c3ccccc3)cc2)n1
IC50 [9]: 170 µM (active)
IC50 [10]: 0.003 µM (active)

Cc1ccc(C(=O)N[C@@H](C)CN2CCC(n3c(=O)[nH]c4c(F)cccc43)CC2)cc1
IC50 (Phospholipase D2): 20 µM (active)
IC50 (Phospholipase D1): 0.222 µM (active)

O=C(O)c1ccc(-c2ccc(/C=c3/sc4nc5ccccc5n4c3=O)o2)cc1Cl
IC50 (Cysteine protease ATG4B): 12.2 µM (active)
IC50 (Phospholipase A2): 21.9 µM (inactive)
IC50 [11]: 11.5 µM (active)
IC50 [12]: 48.4 µM (active)
EC50 [13]: 9.71 µM (inactive)
EC50 [14]: 5.96 µM (active)
IC50 [15]: 2.89 µM (active)
IC50 [16]: 5.86 µM (active)
IC50 [17]: > 66.6 µM (inactive)
AC50 [18]: 2 µM (active)
EC50 [19]: 20.3 µM (active)
IC50 [20]: 123 µM (not active)
EC50 [21]: 12.2 µM (active)

O=C(N/N=C/c1cn(-c2ccccc2)nc1-c1ccc2c(c1)OCCO2)c1ccncc1
EC50 (Insulin-degrading enzyme [22]): > 54.7 µM (inactive)
IC50 [23]: 6.51 µM (active)
EC50 (HEK293 [24]): > 54.7 µM (inactive)
EC50 (Insulin-degrading enzyme [25]): > 54.7 µM (inactive)
IC50 (HEK293 [26]): 29.2 µM (inactive)
